Data on three compounds can be found in article PMC3279297 (Bioorganic & medicinal chemistry, 2011).

Common to all, as to type: biochemical
The target in experiment [1] is DENV2 NS2B-NS3pro (Dengue virus type 2, UniProt P14340). As to the kind of experiment: Steady-state kinetics of 7n against DENV2 NS2B-NS3pro. Conditions: 0.025 μM protease.
Experiment [2] addresses DENV2 NS2B-NS3 protease (Dengue virus type 2, UniProt P14340). As to the kind of experiment: In vitro DENV2 NS2B-NS3pro inhibition assay. Conditions: compound 25 μM, protease 25 nM, absence of detergent (Figure 2).
The target in experiment [3] is WNV NS2B-NS3pro (West Nile virus, UniProt Q9Q6P4). As to the kind of experiment: In vitro WNV NS2B-NS3pro inhibition assay. Conditions: compound 25 μM, protease 28 nM, 0.1% CHAPS (Figure 3).
Sequence of WNV NS2B-NS3pro (Q9Q6P4 1506-1683): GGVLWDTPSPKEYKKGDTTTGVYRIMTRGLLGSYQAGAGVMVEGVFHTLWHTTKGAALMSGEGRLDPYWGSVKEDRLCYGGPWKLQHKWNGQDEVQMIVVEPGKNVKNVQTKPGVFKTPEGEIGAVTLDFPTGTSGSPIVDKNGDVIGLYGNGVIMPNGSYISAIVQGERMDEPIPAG
Sequence of WNV NS2B-NS3pro (Q9Q6P4 1428-1467): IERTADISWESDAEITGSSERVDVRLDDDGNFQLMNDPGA

Sequence of DENV2 NS2B-NS3pro (P14340 1476-1653): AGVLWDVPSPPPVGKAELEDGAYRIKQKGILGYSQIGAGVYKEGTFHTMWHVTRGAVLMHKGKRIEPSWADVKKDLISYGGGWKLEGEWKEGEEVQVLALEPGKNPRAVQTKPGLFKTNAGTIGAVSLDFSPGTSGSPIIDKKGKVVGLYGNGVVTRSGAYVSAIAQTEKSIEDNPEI
Sequence of DENV2 NS2B-NS3pro (P14340 1398-1437): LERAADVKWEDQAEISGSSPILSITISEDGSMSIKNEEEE
Sequence of DENV2 NS2B-NS3 protease (P14340 1476-1653): as the sequence (P14340 1476-1653) above
Sequence of DENV2 NS2B-NS3 protease (P14340 1398-1437): as the sequence (P14340 1398-1437) above

For orientation: Vmax means the rate approached at saturating substrate. On to `O=C(Cn1sc2ccccc2c1=O)Nc1cccc(OCc2cn(CC(=O)Nc3ccccc3Oc3ccccc3)nn2)c1` [Compound 7n, N-(3-((1-(2-Oxo-2-(2-phenoxyphenylamino)ethyl)-1H-1,2,3-triazol-4-yl)methoxy)phenyl)-2-(3-oxobenzo[d]isothiazol-2(3H)-yl)acetamide], for which the Vmax in experiment [1] (inhibitor [7n] 1 μM) is 0.1006 ± 0.0029 µM/min; in experiment [1] (inhibitor [7n] 2 μM), 0.0978 ± 0.0020 µM/min; in experiment [1] (inhibitor [7n] 5 μM), 0.0994 ± 0.0010 µM/min.
As for `O=C(Cn1sc2ccccc2c1=O)NCc1cn(CC(=O)Nc2ccc(Oc3ccccc3)cc2)nn1` [Compound 4l, N-((1-(2-Oxo-2-(4-phenoxyphenylamino)ethyl)-1H-1,2,3-triazol-4-yl)methyl)-2-(3-oxobenzo[d]isothiazol-2(3H)-yl)acetamide], in experiment [2], the “inhibitory activity toward DENV NS2B-NS3pro (in words)” value is “noteworthy inhibitory activity”. Further, the “inhibitory activity toward WNV NS2B-NS3pro (in words)” value in experiment [3] is reported as “weak inhibitory activity”.
On to “Methyl 4-((4-((3-(2-(3-oxobenzo[d]isothiazol-2(3H)-yl)acetamido)phenoxy)methyl)-1H-1,2,3-triazol-1-yl)methyl)benzoate [Compound 7e]”, for which the “inhibitory activity toward DENV NS2B-NS3pro (in words)” value in experiment [2] was “noteworthy inhibitory activity”.
